Data set [1] relates to blood glucose. Briefly: Insulin eye drops with […] and nose drops with 0.5% tetradecyl maltoside, blood glucose. In kind it is in vivo, rat. As to conditions: insulin nose drops with 0.5% tetradecyl maltoside added after 120 min.
A short description of data set [2]: Bioavailability of antisense oligonucleotide given intrajejunally. Type of data set: in vivo, Cynomolgus monkeys. As to conditions: AUC over 240 minutes relative to reference. The method, then: An approximately 7,000 Dalton antisense oligonucleotide (ASO) with a modified backbone (phosphorothioate oligonucleotide as described in U.S. Pat. No. 7,132,530) mixed with alkylglycoside tetradecyl-beta-D-maltoside (Intravail™), was administered to six Cynomolgus monkeys canulated into the jejunum at a dose of 10 mg/kg. The animals were fasted prior to administration. Test agents were dissolved in PBS buffer and injected through the cannula into the jejunum of each animal in a 1.5 mL volume or administered subcutaneously (s.c.) as noted in Table VIII.
The protocol involved a 3 way crossover in which each animal had the first 3 test agents in Table VIII administered on 3 different dates. There was a 1 week washout period between dosing dates. […] Analysis of the blood levels was conducted using quantitative analysis involving solid phase extraction using cationic polystyrene nanoparticles. […]
Quantitative analysis was performed with capillary gel electrophoresis of the extracted samples. […] Using the data obtained from CGE analysis, quantitation of phosphorothioate oligonucleotides was carried out. The amount of oligonucleotides in the samples (nON) was calculated using the following formula: […]
The relative bioavailabilities were determined as the ratio of each AUC divided by the AUC for the intravenously administered drug. […]

Another data set concerns human nasal epithelium. Briefly: Irritation of nasal mucosa on daily intranasal administration. As to conditions: […] in OTC nasal saline, 33 days.
In data set [3] the test system is blood glucose. Briefly: Insulin eye drops with absorption enhancer in xylazine/ketamine anesthetized rats, blood glucose.
The conditions of data set [4]: New Zealand White, rabbit, in vivo.
Protocol: Thereafter, the animals return to consciousness. At individual time point over a two hour period, 1 mL blood samples are collected from the central ear artery. […] All samples are stored at −70° C. until assaying for melatonin. Melatonin is measured using a commercial ELISA kit manufactured by GenWay Biotech Inc., San Diego, Calif.
Another data set is described as follows: in vivo. As to conditions: other: buccal, 60 mg.

Some results are limits rather than exact numbers.

Take `CCCCCCCCCCCCCCO[C@@H]1O[C@H](CO)[C@@H](O[C@H]2O[C@H](CO)[C@@H](O)[C@H](O)[C@H]2O)[C@H](O)[C@H]1O` [Tetradecyl Maltoside, n-tetradecyl-4-O-α-D-glucopyranosyl-β-D-glucopyranoside]: the results for the “Blood Glucose” value in the data set on blood glucose [1] (time 150 min), in the data set on blood glucose [1] (time 165 min) and in the data set with blood glucose [1] (time 180 min) were 74 mg/dL, 76 mg/dL and 68 mg/dL, respectively. Moreover, in data set [2], the “Average Bioavailability (n = 6)” value is recorded as “up to 18%”. In addition, the “irritation of the nasal mucosa” value with human nasal epithelium is “no observable irritation”. The “effect as absorption enhancer for ocular insulin (blood glucose lowering), in words” value in the data set on blood glucose [3] (0.5% enhancer) and in the data set with blood glucose [3] ([…] enhancer) was “effective” each time.

As for `COc1ccc2[nH]cc(CCNC(C)=O)c2c1` [melatonin, 5-methoxy-N-acetyltryptamine], in data set [4], the “time to maximal concentration versus tablets without alkyl saccharides” value is “approximately one half the time”.

For the compound `O=C(c1ccc(OCCN2CCCCC2)cc1)c1c(-c2ccc(O)cc2)sc2cc(O)ccc12` [raloxifene, Raloxifene], in “in vivo”, the bioavailability (in general, dose-corrected exposure relative to a reference, in per cent) is no less than 4%.

These data come from patent US20180000942A1, “COMPOSITIONS FOR DRUG ADMINISTRATION” (priority 2013, published 2018).
